# Results reported in US20120309734A1, “COMBRETASTATIN DERIVATIVES AND USES THEREFOR” (priority 2009, published 2012).
# pIC50: −log10 of the molar value. Where two headings read alike, the source gives them in different places.
# Experiments:
# MDA-MB-231 cells [1] = assay: Antiproliferation study, MTT cell viability assay; format: cell-based; conditions: Homo sapiens, read-out: antiproliferative effects, MDA-MB-231
# Experimental: All assays were performed in triplicate for the determination of mean values reported. Compounds were assayed as the free bases isolated from reaction. The human breast tumour cell line MCF-7 was cultured in Eagles minimum essential medium in a […] atmosphere with 10% fetal bovine serum, 2 mM L-glutamine and 100 μg/mL penicillin/streptomycin. The medium was supplemented with 1% non-essential amino acids. MDA-MB-231 cells were maintained in Dulbecco's Modified Eagle's medium (DMEM), supplemented with 10% (v/v) Fetal bovine serum, 2 mM L-glutamine and 100 μg/mL penicillin/streptomycin (complete medium). […] At this point solubilization was begun through the addition of 200 μL DMSO and the cells maintained at room temperature in darkness for 20 min to ensure thorough colour diffusion before reading the absorbance. The absorbance value of control cells (no added compound) was set to 100% cell viability and from this graphs of absorbance versus cell density per well were prepared to assess cell viability and from these, graphs of percentage cell viability versus concentration of subject compound added were drawn.
# (§1) MDA-MB-231 cells were treated with vehicle (1% (v/v) ethanol) or 10 nM, 100 nM, 1 μM and 10 μM (final concentrations) of 25. Cells were harvested after 24, 48 or 72 hours and analysed for DNA content by flow cytometry.
# [2] = system: purified bovine brain tubulin; assay: Tubulin polymerization assay (turbidity); format: biochemical
# Experimental: The effect of compounds on the assembly of purified bovine brain tubulin was determined spectrophotometrically by monitoring the change in turbidity. This assay used a 96-well plate format with 300 μg of >99% purified bovine brain tubulin in each well. […] 10 μl of 10× strength of each compound tested was pipetted into a half area 96-well plate prewarmed to 37° C. A 100 μl volume of tubulin was then pipetted into the prewarmed plate. Samples were mixed well and tubulin assembly was monitored at an A340 nm at 30 second intervals for 60 minutes at 37° C. in a Spectromax 340PC spectrophotometer (Molecular Devices).
# MDA-MB-231 cells [3] = assay: Cell cycle analysis by flow cytometry (PI); format: cell-based, human
# Experimental: The MDA-MB-231 cells were seeded at a density of 18×10^4 cells/mL in 5 mL of medium (900,000 cells per flask). After 24 hours the control was treated with 50 μL of ethanol (1% v/v) and selected compound dosed at range 10 nM-10 μM (final concentration, 1% v/v). They were incubated for 72 hours. Following incubation, the cells were removed from the bottom of the flask by scraping and the medium placed in a 20 mL sterilin. They were centrifuged for 10 minutes at 600×g. The supernatant was decanted and the pellet resuspended in 1 mL of ice-cold PBS; cells were again centrifuged for 10 minutes at 600×g. The supernatant was decanted and the pellet resuspended in 200 μL of ice-cold phosphate buffer saline (PBS). Subsequently ice-cold 70% ethanol (2 mL) was slowly added to the tube as it was gently vortexed. The cells were kept at −20° C. for at least one hour. After the fixation 5 μL of FBS was added to the samples. The cells were harvested by centrifugation at 600×g for 10 mins. The ethanol was carefully removed and the pellet resuspended in 400 μL of PBS and transferred to FACS microtubes. A 25 μL aliquot of RNase A (1 mg/mL) and 75 μL of propidium iodide (PI) 1 mg/mL, a DNA binding fluorescent dye, was added to each tube. The samples were wrapped in aluminium foil and incubated for a minimum of 30 min at 37° C. The samples were read at 488 nm using FACscalibur flow cytometer from Becton Dickinson. The FACS data for 10,000 cells was analysed using the Macintosh-based application Cellquest and the data was stored as frequency histograms.
# as §1
# [4] = system: MCF-7 breast cancer cell line; assay: Antiproliferation study, MTT cell viability assay; format: cell-based; conditions: Homo sapiens
# Experimental: All assays were performed in triplicate for the determination of mean values reported. Compounds were assayed as the free bases isolated from reaction. The human breast tumour cell line MCF-7 was cultured in Eagles minimum essential medium in a […] atmosphere with 10% fetal bovine serum, 2 mM L-glutamine and 100 μg/mL penicillin/streptomycin. The medium was supplemented with 1% non-essential amino acids. MDA-MB-231 cells were maintained in Dulbecco's Modified Eagle's medium (DMEM), supplemented with 10% (v/v) Fetal bovine serum, 2 mM L-glutamine and 100 μg/mL penicillin/streptomycin (complete medium). Cells were trypsinised and seeded at a density of 2.5×10^4 cells/ml in a 96-well plate and incubated at 37° C., […] atmosphere for 24 h. […] Control wells contained the equivalent volume of the vehicle ethanol (1% v/v). The culture medium was then removed and the cells washed with 100 μL phosphate buffered saline (PBS) and 50 μL MTT added, to reach a final concentration of 1 mg/mL MTT added. Cells were incubated for 2 h in darkness at 37° C. At this point solubilization was begun through the addition of 200 μL DMSO and the cells maintained at room temperature in darkness for 20 min to ensure thorough colour diffusion before reading the absorbance. The absorbance value of control cells (no added compound) was set to 100% cell viability and from this graphs of absorbance versus cell density per well were prepared to assess cell viability and from these, graphs of percentage cell viability versus concentration of subject compound added were drawn.
# [5] = system: human promyelocytic leukaemia HL-60 cells; assay: MTT cell viability assay; format: cell-based; conditions: read-out: Inhibition of cell viability (IC50 value, nM) HL-60
# [6] = system: normal mouse mammary epithelial cells; assay: Viability of normal mammary epithelial cells; format: cell-based
# Experimental: The maximum toxicity elicited by these drugs on normal cells at a concentration of 10 nM was only 8% (see Table 4).
# [7] = system: human chronic myeloid leukaemia K562 cells; assay: MTT cell viability assay; format: cell-based; conditions: read-out: Inhibition of cell viability (IC50 value, nM) K562
# [8] = system: normal mouse mammary epithelial cells; assay: Viability of normal mammary epithelial cells; format: cell-based; conditions: 72 hr treatment
# [9] = target: T1, purified human liver cathepsin-L (Homo sapiens, UniProt P07711); assay: Fluorogenic cathepsin-L activity kit; format: biochemical; conditions: FIG. 2
# T1 construct: uses purified human liver cathepsin-L as the source of the cathepsin; purchased calbiochem; host or cells: human liver
# T1 sequence (P07711 114-333): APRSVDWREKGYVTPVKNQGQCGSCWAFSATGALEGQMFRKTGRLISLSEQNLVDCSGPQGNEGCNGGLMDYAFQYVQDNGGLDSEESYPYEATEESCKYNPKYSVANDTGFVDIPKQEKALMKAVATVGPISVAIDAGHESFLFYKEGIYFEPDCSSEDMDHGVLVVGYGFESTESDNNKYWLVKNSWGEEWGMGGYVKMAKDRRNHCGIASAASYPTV
# Experimental: Cathepsin L activity was measured using the fluorogenic cathepsin-L activity kit from calbiochem which uses purified human liver cathepsin-L as the source of the cathepsin. […] Values represent the mean+/−range of two separate experiments each carried out in duplicate.
# [10] = MCF7, 72 h, antiproliferative activity, MTT, 72 h, read-out: IC50 (μM) MCF-7 cell line
smiles,measurement,setting,value
COc1ccc(C2CC(=O)N2c2cc(OC)c(OC)c(OC)c2)cc1O (stereo not drawn) [Compound 25],pIC50,MDA-MB-231 cells [1],7.27
same,X-fold inhibition of tubulin polymerisation (Vmax ± SEM),[2]; 1 μM,1.1 ± 0.2 fold
same,X-fold inhibition of tubulin polymerisation (Vmax ± SEM),[2]; 10 μM,10.2 ± 2.3 fold
same,G1 (%),"MDA-MB-231 cells [3]; 10 nM, 24 hours",48.33 ± 4.18%
same,G2/M (%),"MDA-MB-231 cells [3]; 10 nM, 24 hours",25.61 ± 0.98%
same,M5 (%),"MDA-MB-231 cells [3]; 10 nM, 24 hours",2.84 ± 0.59%
same,S (%),"MDA-MB-231 cells [3]; 10 nM, 24 hours",12.55 ± 2.54%
same,Sub-G1 (%),"MDA-MB-231 cells [3]; 10 nM, 24 hours",3.72 ± 1.97%
same,G1 (%),"MDA-MB-231 cells [3]; 10 nM, 48 hours",45.25 ± 7.37%
same,G2/M (%),"MDA-MB-231 cells [3]; 10 nM, 48 hours",23.71 ± 7.81%
same,M5 (%),"MDA-MB-231 cells [3]; 10 nM, 48 hours",6.10 ± 0.62%
same,S (%),"MDA-MB-231 cells [3]; 10 nM, 48 hours",13.36 ± 2.58%
same,Sub-G1 (%),"MDA-MB-231 cells [3]; 10 nM, 48 hours",11.57 ± 3.06%
same,G1 (%),"MDA-MB-231 cells [3]; 10 nM, 72 hours",48.24 ± 2.79%
same,G2/M (%),"MDA-MB-231 cells [3]; 10 nM, 72 hours",17.68 ± 4.58%
same,M5 (%),"MDA-MB-231 cells [3]; 10 nM, 72 hours",3.55 ± 1.57%
same,S (%),"MDA-MB-231 cells [3]; 10 nM, 72 hours",9.08 ± 2.32%
same,Sub-G1 (%),"MDA-MB-231 cells [3]; 10 nM, 72 hours",15.25 ± 2.03%
same,G1 (%),"MDA-MB-231 cells [3]; 100 nM, 24 hours",18.95 ± 6.60%
same,G2/M (%),"MDA-MB-231 cells [3]; 100 nM, 24 hours",59.43 ± 3.13%
same,M5 (%),"MDA-MB-231 cells [3]; 100 nM, 24 hours",4.87 ± 4.39%
same,S (%),"MDA-MB-231 cells [3]; 100 nM, 24 hours",6.05 ± 0.38%
same,Sub-G1 (%),"MDA-MB-231 cells [3]; 100 nM, 24 hours",4.88 ± 0.85%
same,G1 (%),"MDA-MB-231 cells [3]; 100 nM, 48 hours",10.76 ± 0.34%
same,G2/M (%),"MDA-MB-231 cells [3]; 100 nM, 48 hours",36.42 ± 3.42%
same,M5 (%),"MDA-MB-231 cells [3]; 100 nM, 48 hours",4.61 ± 0.86%
same,S (%),"MDA-MB-231 cells [3]; 100 nM, 48 hours",8.90 ± 0.85%
same,Sub-G1 (%),"MDA-MB-231 cells [3]; 100 nM, 48 hours",37.50 ± 0.71%
same,G1 (%),"MDA-MB-231 cells [3]; 100 nM, 72 hours",13.90 ± 3.62%
same,G2/M (%),"MDA-MB-231 cells [3]; 100 nM, 72 hours",12.62 ± 9.22%
same,M5 (%),"MDA-MB-231 cells [3]; 100 nM, 72 hours",2.99 ± 1.89%
same,S (%),"MDA-MB-231 cells [3]; 100 nM, 72 hours",5.34 ± 4.32%
same,Sub-G1 (%),"MDA-MB-231 cells [3]; 100 nM, 72 hours",63.10 ± 20.06%
same,G1 (%),"MDA-MB-231 cells [3]; 1 μM, 24 hours",19.22 ± 6.19%
same,G2/M (%),"MDA-MB-231 cells [3]; 1 μM, 24 hours",63.16 ± 4.86%
same,M5 (%),"MDA-MB-231 cells [3]; 1 μM, 24 hours",4.31 ± 3.17%
same,S (%),"MDA-MB-231 cells [3]; 1 μM, 24 hours",6.01 ± 2.90%
same,Sub-G1 (%),"MDA-MB-231 cells [3]; 1 μM, 24 hours",7.08 ± 4.20%
same,G1 (%),"MDA-MB-231 cells [3]; 1 μM, 72 hours",14.29 ± 2.20%
same,G2/M (%),"MDA-MB-231 cells [3]; 1 μM, 72 hours",21.24 ± 12.05%
same,M5 (%),"MDA-MB-231 cells [3]; 1 μM, 72 hours",5.97 ± 4.71%
same,S (%),"MDA-MB-231 cells [3]; 1 μM, 72 hours",7.76 ± 0.58%
same,Sub-G1 (%),"MDA-MB-231 cells [3]; 1 μM, 72 hours",50.53 ± 14.78%
same,G1 (%),"MDA-MB-231 cells [3]; 10 μM, 24 hours",29.30 ± 5.95%
same,G2/M (%),"MDA-MB-231 cells [3]; 10 μM, 24 hours",55.36 ± 1.49%
same,M5 (%),"MDA-MB-231 cells [3]; 10 μM, 24 hours",3.85 ± 3.83%
same,S (%),"MDA-MB-231 cells [3]; 10 μM, 24 hours",3.72 ± 0.71%
same,Sub-G1 (%),"MDA-MB-231 cells [3]; 10 μM, 24 hours",3.18 ± 0.25%
same,G1 (%),"MDA-MB-231 cells [3]; 10 μM, 48 hours",14.44 ± 2.28%
same,G2/M (%),"MDA-MB-231 cells [3]; 10 μM, 48 hours",27.25 ± 4.45%
same,M5 (%),"MDA-MB-231 cells [3]; 10 μM, 48 hours",2.28 ± 0.06%
same,S (%),"MDA-MB-231 cells [3]; 10 μM, 48 hours",4.47 ± 0.06%
same,Sub-G1 (%),"MDA-MB-231 cells [3]; 10 μM, 48 hours",51.27 ± 6.31%
same,G1 (%),"MDA-MB-231 cells [3]; 10 μM, 72 hours",17.14 ± 3.31%
same,G2/M (%),"MDA-MB-231 cells [3]; 10 μM, 72 hours",21.81 ± 12.40%
same,M5 (%),"MDA-MB-231 cells [3]; 10 μM, 72 hours",3.38 ± 2.84%
same,S (%),"MDA-MB-231 cells [3]; 10 μM, 72 hours",9.66 ± 1.84%
same,Sub-G1 (%),"MDA-MB-231 cells [3]; 10 μM, 72 hours",46.49 ± 17.49%
same,IC50,[4]; [10],0.017 µM
same,pIC50,"[4]; MCF7, read-out: antiproliferative effects, MCF-7",7.77
"COc1ccc(C2C(c3ccc(O)cc3)C(=O)N2c2cc(OC)c(OC)c(OC)c2)cc1O (stereo not drawn) [Compound 14, 4-(3-Hydroxy-4-methoxy-phenyl)-3-(4-hydroxy-phenyl)-1-(3,4,5-trimethoxy-phenyl)-azetidin-2-one]",IC50,[5],0.4 nM
same,Percent viability of normal mammary epithelial cells compared to control,"[6]; 10 nM, 72 hr treatment",90%
same,effects on normal mammary epithelial cells,[6]; up to 10 μM,minimal effects
same,melting point,,152 °C
same,IC50,[7],0.9 nM
same,Percent viability of normal mammary epithelial cells compared to control,[8]; 1 nM,93.8%
same,Percent viability of normal mammary epithelial cells compared to control,[8]; 100 nM,73.2%
same,Percent viability of normal mammary epithelial cells compared to control,[8]; 1 μM,75.2%
same,Percent viability of normal mammary epithelial cells compared to control,[8]; 10 μM,74.8%
same,inhibition of cathepsin-L activity,[9],inhibited cathepsin-L in the nanomolar range
same,IC50,[4]; [10],0.0008 µM
same,IC50,"[4]; MCF7, MTT cell viability assay, read-out: Inhibition of cell viability (IC50 value, nM) MCF-7",0.0008 to 0.0031 µM
